We go through twelve molecules from patent US20130053336A1, “TREATMENT OF CHLAMYDIACEAE INFECTIONS BY MEANS OF BETA-LACTAMS” (priority 2010, published 2013).

What all share (format): cell-based
The test system of series [1] is Cells Infected with Chlamydia trachomatis serovar L2. Nature of the series: Cytotoxicity of β-lactams. How it is done:
(§1) It was first sought to verify whether other molecules of the β-lactam family could induce in vitro the same abnormal and noninfectious forms of Chlamydia trachomatis as that produced in the presence of penicillin G. Titration experiments were performed on the infectious ability of bacteria from infected cells treated with different β-lactams. Cytotoxicity and minimum bactericidal concentration (MBC) were determined for each of these molecules. It was also verified whether all of these β-lactams have bactericidal action on persistent forms of Chlamydia trachomatis produced in vitro under the effect of IFN-γ.

Series [2] has as its system Chlamydia trachomatis serovar L2. Nature of the series: Minimum bactericidal concentration (titration of infectious ability of bacteria from treated infected cells). How it is done: as §1
Series [3] deals with Chlamydia trachomatis L2 serovar 16S rRNA. Nature of the series: 16S rRNA expression by RT-PCR. The conditions noted are these: 100 hpi. An excerpt:
HeLa cells were infected with the Chlamydia trachomatis L2 serovar and treated or not treated with penicillin G at 3 hpi. At 100 hpi, the cells were collected and the RNA extracted carefully to avoid DNA contamination. Half of the isolated RNA was used for reverse transcription. The RNA and cDNA were amplified by PCR with primers for 16S (bacterial) and 18S (eukaryotic) rRNA in order to study bacterial activity and to verify cDNA quality and quantity. PCR of the RNA is used to verify the absence of DNA contamination. It also indicates the absence of contaminant in the PCR. […] Roughly 1×10^5 HeLa cells were infected and exposed or not exposed to penicillin G, as described above. At 100 hpi, total RNA were isolated using the RNeasy Plus Mini Kit (Qiagen, Hilden, Germany). The samples were treated with DNase I for 1 hour at 37° C. The enzyme was then denatured at 70° C. for 10 min. The RNA were reverse-transcribed into cDNA using random hexamer primers and AffinityScript Multiple Temperature Reverse Transcriptase (Agilent, Santa Clara, Calif., USA) and by following the manufacturer's instructions for RT-PCR. cDNA and RNA were amplified by PCR with Tag Polymerase (Invitrogen, Carlsbad, Calif., USA) in order to verify the absence of DNA contamination. The primers used to amplify 16S rRNA are: A semi-quantitative analysis of the PCR products was carried out by agarose gel electrophoresis and UV detection.

Series [4] concerns Chlamydia trachomatis serovar L2. Nature of the series: Development and morphology of inclusions in infected HeLa cells (microscopy). The conditions noted are these: infected HeLa cells, videomicroscopy / culture for 4 days. The method, then: HeLa cells were infected with Chlamydia trachomatis serovar L2 and treated with IFN-γ (100 ng/ml), penicillin G (100 U/ml) or gentamicin ([…]). At various times after infection (hours post-infection (hpi)), the cells were fixed and stained with an antibody against Chlamydia sp. (green in the original figure) and with Hoechst (blue in the original figure). The infected HeLa cells treated with penicillin G have abnormal bodies that grow and that are phenotypically quite different from those formed during treatment with IFN-γ. The bodies formed with penicillin G are appreciably different from “classic” persistent bodies. To examine the effects of penicillin G on cell infection with Chlamydia, the host cells were cultivated up to 70% confluence without antibiotics, and then were infected with C. trachomatis strain […]. muridarum at 1 IFU. The infections were carried out at 37° C. for 90 minutes with centrifugation, followed by a washing of extracellular bacteria. At 3 hpi, after the washings, the culture medium was replaced with medium containing either 25 μg/ml gentamicin or 1-100 IU/ml penicillin G. At regular intervals after treatment with penicillin G, the cultures were either fixed in 4% neutral buffered PFA for 30 minutes to be prepared for confocal microscopy, or collected to determine the infectivity of the progeny bacteria, according to the previously described method (Verbeke, P. et al. PLoS Pathog 2:e45, 2006). HeLa cells cultured in monolayers on slides were infected with serovar L2 with an IFU of 1, as described above (Verbeke, P. et al. PLoS Pathog 2:e45, 2006). Three hours after the infection, the medium was removed and replaced with culture medium containing 500 IU/ml (final concentration) recombinant human IFN-γ.

Series [5] relates to Chlamydia trachomatis inclusions. Nature of the series: Fusion of lysosomes with inclusions (cathepsin D, LysoTracker, confocal microscopy). The conditions noted are these: HeLa, 24 hpi.
[6] abbreviates: minimum bactericidal concentration, read-out: MBC.
Setting [7] is: second line of the MBC cell, read-out: MBC, bound in parentheses below the value.
Setting [8] is: printed as a concentration bound.

≈ marks a conversion by molar mass, not a printed value. Counter-ions that a name gives are not always drawn. Like-named read-outs stand apart in the source and are kept apart here. Some results are limits rather than exact numbers.

For orientation: MBC means the lowest tested concentration that kills the bacteria rather than only halting them. `CC1(C)S[C@@H]2[C@H](NC(=O)[C@H](N)c3ccc(O)cc3)C(=O)N2[C@H]1C(=O)O` [Amoxicillin trihydrate]: the Cytotox. in series [1] (given as 0) was found to be 0. Further, the minimal bactericidal concentration (MBC) in series [2] (setting [6]) is 0.3 µM; in series [2] (setting [7]), > 0.1 µM.
Turning to `CC1=C(C(=O)O)N2C(=O)[C@@H](NC(=O)[C@H](N)c3ccc(O)cc3)[C@H]2SC1` [Cefadroxil], the Cytotox. in series [1] (given as 0) is 0. The MBC in series [2] (setting [6]) was 10 µM (≈ 3.63 µg/mL); in series [2] (setting [7]), > 3 µM.
Take `C=CC1=C(C(=O)O)N2C(=O)[C@@H](NC(=O)/C(=N\OCC(=O)O)c3csc(N)n3)[C@H]2SC1` [Cefixime trihydrate]: the Cytotox. in series [1] (setting [8]) was >400 µM. Moreover, the minimal bactericidal concentration (MBC) in series [2] (setting [6]) was 300 µM; in series [2] (setting [7]), > 100 µM.
On to `Cc1onc(-c2ccccc2Cl)c1C(=O)N[C@@H]1C(=O)N2[C@@H]1SC(C)(C)[C@@H]2C(=O)O` [Cloxacillin sodium salt hydrate], for which the Cytotox. in series [1] (given as 0) came out at 0. Moreover, the MBC in series [2] (setting [6]) was 3 µM; in series [2] (setting [7]), > 1 µM.
Taken in the same sequence, the figures for `C[C@@H](O)[C@H]1C(=O)N2C(C(=O)O)=C(SCCN=CN)C[C@H]12` [Imipenem monohydrate] were 0, 300 µM and > 100 µM.
In turn, `CC1(C)S[C@@H]2[C@H](/N=C/N3CCCCCC3)C(=O)N2[C@H]1C(=O)O` [Mecillinam] returned a Cytotox. in series [1] (given as 0) of 0. Also, the minimal bactericidal concentration (MBC) in series [2] (setting [6]) was 3 µM (≈ 0.976 µg/mL); in series [2] (setting [7]), > 1 µM.
For the molecule `CC1(C)S[C@@H]2[C@H](NC(=O)COc3ccccc3)C(=O)N2[C@H]1C(=O)O` [Penicillin V potassium salt], the Cytotox. in series [1] (given as 0) amounted to 0. In addition, the values for the minimal bactericidal concentration (MBC) in series [2] (setting [6]) and in series [2] (setting [7]) were 0.3 µM and > 0.1 µM, respectively.
`O=C(O)[C@H]1/C(=C/CO)O[C@@H]2CC(=O)N21` [Potassium clavulanate]: the Cytotox. in series [1] (setting [8]) was >50 µM. The MBC in series [2] (setting [6]) is 1 µM; in series [2] (setting [7]) it was > 0.3 µM.
With `CC1(C)[C@H](C(=O)O)N2C(=O)C[C@H]2S1(=O)=O` [Sulbactam sodium], the MBC is 10 µM in series [2] and > 3 µM in series [2] (read-out: MBC, bound in parentheses below the value).
Consider `C[C@]1(Cn2ccnn2)[C@H](C(=O)O)N2C(=O)C[C@H]2S1(=O)=O` [Tazobactam sodium salt], for which the Cytotox. in series [1] (given as 0) was determined as 0. Also, the MBC was 30 µM in series [2] (setting [6]) and > 10 µM in series [2] (setting [7]).
Consider gentamicin, for which the “16S rRNA expression in infected cells” value in series [3] was “amplified”.

B1: IFN-γ: Recombinant human IFN-γ, a well-known inducer of persistence (protein, UniProt P01579 24-161, looked up)
Interferon gamma: QDPYVKEAENLKKYFNAGHSDVADNGTLFLGILKNWKEESDRKIMQSQIVSFYFKLFKNFKDDQSIQKSVETIKEDMNVKFFNSNKKKRDDFEKLTNYSVTDLNVQRKAIHELIQVMAELSPAAKTGKRKRSQMLFRG
B1: the “growth of the bacterial inclusions” value in series [4] is recorded as “remains constant”. Further, in series [3], the “16S rRNA expression in infected cells” value is reported as “amplified”. The “localization of cathepsin D in inclusions” value in series [5] was “excluded from normal and persistent inclusions”.
